In US11458141B2, “Aryl hydrocarbon receptor (AhR) agonists for the prevention and treatment of inflammatory disorders” (The Johns Hopkins University, priority 2017, dated 2022):

How the values were obtained:
[1] = tested on: aryl hydrocarbon receptor (AHR) signaling; assay: Cypla1 mRNA (AHR signaling) in ileum of mice with experimental NEC, qPCR; type: in vivo, mouse; conditions: 4 days, vs vehicle
Protocol: (§1) Necrotizing enterocolitis (NEC) was induced in 7-day-old mouse pups by gavage feeding and hypoxia exposure for 4 days in presence of abacavir, lansoprazole, tranilast and raberprazole. The ileum was harvested at the end of the experiment and the mRNA expression of target genes was analyzed by qPCR.
Referring now to FIG. 1, the mRNA expression of Cypla1, the down-stream gene of aryl hydrocarbon receptor (AHR) signaling, was quantified in the ileum of experimental NEC models. Data are represented as mean±SEM; *p<0.05 between indicated groups; each dot represents an individual mouse.

mice with NEC = assay: mRNA of proinflammatory cytokines and NEC markers in ileum of mice with experimental NEC, qPCR; type: in vivo, mouse; conditions: vs vehicle-treated group
Protocol: as §1
Referring now to FIG. 2, the mRNA expression of pro-inflammatory cytokine tumor necrosis factor alpha (Tnf) was quantified in the ileum of experimental NEC models. Data are represented as mean±SEM; *p<0.05 between indicated groups; each dot represents an individual mouse.
Referring now to FIG. 3, the mRNA expression of pro-inflammatory Interleukin-6 (IL-6) was quantified in the ileum of experimental NEC models. Data are represented as mean±SEM; *p<0.05 between indicated groups; each dot represents an individual mouse.
Referring now to FIG. 4, the mRNA expression of NEC marker S100 calcium binding protein A8 (S100a8) was quantified in the ileum of experimental NEC models. Data are represented as mean±SEM; *p<0.05 between indicated groups; each dot represents an individual mouse.
Referring now to FIG. 5, the mRNA expression of NEC marker lipocalin 2 (Lcn2) was quantified in the ileum of experimental NEC models. Data are represented as mean±SEM; *p<0.05 between indicated groups; each dot represents an individual mouse.
Referring now to FIG. 6, the mRNA expression of NEC marker intestinal fatty acid-binding protein (iFabp) was quantified in the ileum of experimental NEC models. Data are represented as mean±SEM; *p<0.05 between indicated groups; each dot represents an individual mouse.

SMILES	mRNA expression of Cypla1, the down-stream gene of AHR signaling [1]	mRNA expression of Interleukin-6 (IL-6) (mice with NEC)	mRNA expression of NEC marker S100a8 (mice with NEC)	mRNA expression of NEC marker lipocalin 2 (Lcn2) (mice with NEC)	mRNA expression of tumor necrosis factor alpha (Tnf) (mice with NEC)	mRNA expression of NEC marker iFabp (mice with NEC)
Nc1nc(NC2CC2)c2ncn([C@H]3C=C[C@@H](CO)C3)c2n1 [abacavir]	activated AHR signaling pathway	significantly attenuated IL-6 expression	significantly attenuated S100a8 expression	significantly attenuated Lcn2 expression	significantly attenuated Tnf expression	
Cc1c(OCC(F)(F)F)ccnc1C[S+]([O-])c1nc2ccccc2[nH]1 (centres unmarked) [lansoprazole]	activated AHR signaling pathway	significantly attenuated IL-6 expression	significantly attenuated S100a8 expression	significantly attenuated Lcn2 expression	significantly attenuated Tnf expression	significantly attenuated iFabp expression
COCCCOc1ccnc(C[S+]([O-])c2nc3ccccc3[nH]2)c1C (centres unmarked) [raberprazole]	nor raberprazole, activated AHR signaling pathway		significantly attenuated S100a8 expression			significantly attenuated iFabp expression
